Test system: enkephalinase
Experiment: enkephalinase inhibition, cleavage of N-suc-Ala-Ala-Phe-AMC by osteoblast-like cells, fluorescence
Format: biochemical, rat or mouse
Settings: substrate N-succinyl-alanyl-alanylphenylalanyl-7-amido-4-methyl coumarin, 37° C., one hr
Source text: One such model is described by Spillantini et al., 12 Eur. J. Pharmacol 142-150 (1986), which has been modified by Applicants. (Applicants' modification consists of using osteoblast-like cells, rather than human serum, as the source of enkephalin-degrading enzymes.) This model measures inhibition of the enkephalin-degrading enzyme "enkephalinase". According to Applicants' modified method, the source of the enkephalin-degrading enzymes i s rat osteoblast-like cells or mouse osteoblast-like cells (MC3T3-E1 cells). The substrate used is N-succinyl-alanyl-alanyl-phenylalanyl-7-amido-4-methyl coumarin (hereafter N-suc-Ala-Ala-Phe-AMC), which is known to be cleaved at the Ala-Phe peptide bond by enkephalinase. […] Aminopeptidase, which is known to specifically cleave only Phe-AMC (at the Phe-AM(peptide bond), is then added to the sample. Cleavage by aminopeptidase yields the metabolites AMC (fluorescent) and Phe. Fluorescence is then measured and is directly proportional to the amount of substrate degraded by enkephalinase.
Specifically, a test sample (containing enzyme and a putative enkephalinase inhibitor) and a control sample (containing only enzyme) are equilibrated. A quantified amount of substrate is then added to both samples. […] Fluorescence of the samples is then measured, greater fluorescence corresponding to greater degradation of the substrate by enkephalinase. […]

O=C(O)CNC(=O)C(CS)Cc1ccccc1 (racemic) [DL-3-mercapto-2-benzyl-propanoylglycine]
inhibition of substrate degradation by enkephalinase (fluorescence vs control): significantly inhibited substrate degradation by enkephalinase

From patent US5403824A, “Methods for the treatment of osteoporosis” (The Procter & Gamble Company, priority 1993, dated 1995)
